Source: patent US20230089368A1, “POLYAROMATIC UREA DERIVATIVES AND THEIR USE IN THE TREATMENT OF MUSCLE DISEASES” (ANAGENESIS BIOTECHNOLOGIES S.A.S., priority 2019, published 2023)

Columns and labels:
[1] = system: muscle progenitors (hMP) from DMD hiPSC or WT hiPSC; experiment: Myotube assay: myogenic activity (total myotube area per well); assay type: cell-based, human; settings: Homo sapiens, 72 h, myotube assay, compounds incubated 3 days; for Emax: read-out: MA (normalized Myotube Area, efficacy); for EC50: 10 points dose-response 1.5 nM to 30 μM, read-out: EC50 (myogenic activity, half-maximal generation of myotubes)
Protocol: An in vitro assay for assessing the efficacy of compounds for use in treating, ameliorating, delaying, curing and/or preventing a disease or condition associated with muscle cells and/or satellite cells is described in example 78. Herein, the generation of myotubes and satellite cells after adding a compound to a myotube assay workflow is assessed. Said myotube assay workflow is derived from wild-type or DMD human induced pluripotent stem cells (WT hiPSC or DMD hiPSC). Before the addition of said compound, the assay comprises satellite-like cells, but no significant amount of myotubes.
(§1) The efficacy of said compound for use in treating, ameliorating, delaying, curing and/or preventing a disease or condition associated with muscle cells and/or satellite cells is positively correlated with the generation of myotubes (i.e. the increase of the area occupied by myotubes on the assay) and/or satellite cells (i.e. the increase of the number of satellite cells) in the assay after adding said compound. The generation of myotubes by the addition of said compound is expressed as the EC50 value, the concentration of said compound that corresponds with the half-maximal generation of myotubes, and the MA (normalized myotube area) value, the normalized area occupied by generated myotubes on the assay. […] Since muscle cells are formed from myotubes during myogenesis, the generation of myotubes in the assay is a good indicator of the ability of said compound to induce the formation of functional muscle cells in vivo. The number of satellite cells is measured as the percentage of Pax7 positive cells, relative to the total number of cells in the assay, as shown in FIG. 3. The percentage of Pax7 is a good indicator of the ability of said compound to induce the formation of satellite cells which are able to play a role in muscle repair and regeneration in vivo.
(§2) DMD human induced pluripotent stem cells (hereafter “DMD hiPSC”), generated from the NORM-1 hiPSC WT cell line by gene editing, or WT human induced pluripotent stem cells (hereafter “WT hiPSC”), being NORM-1 hiPSC wt cell line, have been differentiated according to Chal et al. 2015, 2016, to produce muscle progenitors (hereafter “hMP”). The hMP population contains satellite-like cells (i.e Pax7-positive cells) and satellite cells' progenies (i.e. Myogenin-positive cells).
(§3) FIG. 1 provides an example of a Myotube assay workflow. At day 0, hMP are thawed and 3.1 million cells are plated into a T75-flask coated with hESC-qualified Matrigel™ (Corning) in SkGM proliferating medium (PromoCells), supplemented with 5 μM Y-27632 (Tocris Bioscience). On day 2, SkGM proliferating medium is refreshed. On day 4, hMP are harvested and transferred into a 384-well plate coated with collagen type I at a density of 3500 cells/well in a DMEM-based medium, containing 5% of knockout serum replacement (Gibco), 1% PenStrep (Gibco), 1% MEM NEAA (Gibco) and 0.1 mM 2-mercaptoethanol (Gibco) (hereafter “K5 medium”) and 5 μM Y-27632. Compounds to be tested are then added in the medium and incubated for 3 days at 37° C. On day 7, cells are fixed and immunostained. For example, myotubes (alpha-actinin staining) and satellite-like (Pax7 staining) cells can be analyzed for total myotube area per well or Pax7-positive cell quantification.
(§4) DMD hMP were put in the Myotube assay according to the workflow described in Example 2.1. In particular, compound (i) was added at concentrations ranging from 1.5 nM to 30 μM, starting from day 4. hMP were cultivated for three more days in presence of compound (i), then fixed and analyzed for quantification of total myotube area per well. Duplicates of each condition were averaged.
Qualitative scale: ++++: EC50<500 nM; +++: 500 nM≤EC50<1000 nM; ++: 1000 nM≤EC50<5000 nM; +: EC50≥5000 nM; +++: MA≥75%; ++: 50%≤MA<75%; +: 25%≤MA<50%.

[2] = system: satellite-like cells (Pax7-positive cells) in hMP; experiment: Myotube assay: Pax7-positive (satellite-like) cell quantification; assay type: cell-based, human; parameters: key to Pax7% (pool of Pax7-positive cells) / Pax7: −: Depletes the pool of cells, while positively affects the myotubes; +: Maintains or increases the pool of cells, with at least 1 of the highest concentration known to be cytotoxic; ++: Maintains or increases the pool of cells, without any toxicity; settings: myotube assay, compounds incubated 3 days
Excerpt: as §1, §2, §3
as §4, with “percentage” for “quantification”, “Pax7-positive cells and nuclei number.” for “total myotube area per well.”
(−): Depletes the pool of cells, while positively affects the myotubes; (+): Maintains or increases the pool of cells, with at least 1 of the highest concentration known to be cytotoxic; and (++) Maintains or increases the pool of cells, without any toxicity.

| EC50 [1] [µM] | Compound | Emax [1] [%] | Pax7% (pool of Pax7-positive cells) [2] |
| --- | --- | --- | --- |
|  | CSc1cc(Oc2ccnc3[nH]c(=O)cnc23)ccc1NC(=O)Nc1cc(C(C)(C)C)nn1-c1ccccc1Cl [(at), 1-(3-(tert-butyl)-1-(2-chlorophenyl)-1H-pyrazol-5-yl)-3-(2-(methylthio)-4-((3-oxo-3,4-dihydropyrido[2,3-b]pyrazin-8-yl)oxy)phenyl)urea] | ≥ 75 | ++ |
|  | CSc1cc(Oc2ccnc3c2ncc(=O)n3C)ccc1NC(=O)Nc1cc(C(C)(C)C)nn1-c1ccccc1 [(au), 1-(3-(tert-butyl)-1-phenyl-1H-pyrazol-5-yl)-3-(4-((4-methyl-3-oxo-3,4-dihydropyrido[2,3-b]pyrazin-8-yl)oxy)-2-(methylthio)phenyl)urea] | ≥ 75 | ++ |
| ≥ 5 | COc1ccccc1-n1nc(C(C)(C)C)cc1NC(=O)Nc1ccc(Oc2ccnc3[nH]c(=O)cnc23)cc1SC [(av), 1-(3-(tert-butyl)-1-(2-methoxyphenyl)-1H-pyrazol-5-yl)-3-(2-(methylthio)-4-((3-oxo-3,4-dihydropyrido[2,3-b]pyrazin-8-yl)oxy)phenyl)urea] | ≥ 75 | ++ |
|  | COc1cccc(-n2nc(C(C)(C)C)cc2NC(=O)Nc2ccc(Oc3ccnc4[nH]c(=O)cnc34)cc2SC)c1 [(aw), 1-(3-(tert-butyl)-1-(3-methoxyphenyl)-1H-pyrazol-5-yl)-3-(2-(methylthio)-4-((3-oxo-3,4-dihydropyrido[2,3-b]pyrazin-8-yl)oxy)phenyl)urea] | ≥ 75 | + |
|  | CSc1cc(Oc2ccnc3[nH]c(=O)cnc23)ccc1NC(=O)Nc1nc(-c2ccc(F)c(F)c2)cs1 [(ax), 1-(4-(3,4-difluorophenyl)thiazol-2-yl)-3-(2-(methylthio)-4-((3-oxo-3,4-dihydropyrido[2,3-b]pyrazin-8-yl)oxy)phenyl)urea] | 50 to 75 | ++ |
| 1 to 5 | CSc1cc(Oc2ccnc3[nH]c(=O)cnc23)ccc1NC(=O)Nc1nnc(-c2ccccc2)s1 [(ay), 1-(2-(methylthio)-4-((3-oxo-3,4-dihydropyrido[2,3-b]pyrazin-8-yl)oxy)phenyl)-3-(5-phenyl-1,3,4-thiadiazol-2-yl)urea] | ≥ 75 | ++ |
|  | Cc1ccc(-n2nc(C(C)(C)C)cc2NC(=O)Nc2ccc(Oc3ccnc4[nH]c(=O)cnc34)cc2C(F)(F)F)cc1 [(az), 1-(3-(tert-butyl)-1-(p-tolyl)-1H-pyrazol-5-yl)-3-(4-((3-oxo-3,4-dihydropyrido[2,3-b]pyrazin-8-yl)oxy)-2-(trifluoromethyl)phenyl)urea] | ≥ 75 | ++ |
|  | CC(C)c1cc(NC(=O)Nc2ccc(Oc3ccnc4[nH]c(=O)cnc34)cc2F)n(-c2ccccc2)n1 [(b), 1-(2-fluoro-4-((3-oxo-3,4-dihydropyrido[2,3-b]pyrazin-8-yl)oxy)phenyl)-3-(3-isopropyl-1-phenyl-1H-pyrazol-5-yl)urea] | 25 to 50 | ++ |
|  | CC(C)(C)c1cnc(NC(=O)Nc2ccc(Oc3ccnc4[nH]c(=O)cnc34)c3ccccc23)s1 [(ba), 1-(5-(tert-butyl)thiazol-2-yl)-3-(4-((3-oxo-3,4-dihydropyrido[2,3-b]pyrazin-8-yl)oxy)naphthalen-1-yl)urea] | ≥ 75 | ++ |
|  | CC(C)(C)c1cc(NC(=O)Nc2ccc(Oc3ccnc4[nH]c(=O)cnc34)c3ccccc23)n(-c2ccc3ncccc3c2)n1 [(bb), 1-(3-(tert-butyl)-1-(quinolin-6-yl)-1H-pyrazol-5-yl)-3-(4-((3-oxo-3,4-dihydropyrido[2,3-b]pyrazin-8-yl)oxy)naphthalen-1-yl)urea] | ≥ 75 | + |
| 1 to 5 | COc1cc(Oc2ccnc3[nH]c(=O)cnc23)ccc1NC(=O)Nc1cc(C(C)(C)C)nn1-c1ccccc1 [(bc), 1-(3-(tert-butyl)-1-phenyl-1H-pyrazol-5-yl)-3-(2-methoxy-4-((3-oxo-3,4-dihydropyrido[2,3-b]pyrazin-8-yl)oxy)phenyl)urea] | ≥ 75 | ++ |
|  | CSc1cc(Oc2ccnc3[nH]c(=O)cnc23)ccc1NC(=O)Nc1cc(C(C)(C)C)nn1-c1ccc(C)nc1 [(bd), 1-(3-(tert-butyl)-1-(6-methylpyridin-3-yl)-1H-pyrazol-5-yl)-3-(2-(methylthio)-4-((3-oxo-3,4-dihydropyrido[2,3-b]pyrazin-8-yl)oxy)phenyl)urea] | ≥ 75 | + |
| 0.5 to 1 | CSc1cc(Oc2ccnc3c2CCCN3)ccc1NC(=O)Nc1cc(C(C)(C)C)nn1-c1ccccc1 [(be), 1-(3-(tert-butyl)-1-phenyl-1H-pyrazol-5-yl)-3-(2-(methylthio)-4-((5,6,7,8-tetrahydro-1,8-naphthyridin-4-yl)oxy)phenyl)urea] | ≥ 75 | ++ |
|  | CNC(=O)c1cc(Oc2ccc(NC(=O)Nc3cc(C(C)(C)C)nn3-c3ccc4ncccc4c3)c3ccccc23)ccn1 [(bf), 4-((4-(3-(3-(tert-butyl)-1-(quinolin-6-yl)-1H-pyrazol-5-yl)ureido)naphthalen-1-yl)oxy)-N-methylpicolinamide] | ≥ 75 | + |
| ≥ 5 | CSc1cc(Oc2ccnc3[nH]c(=O)cnc23)ccc1NC(=O)Nc1cc(C(C)(C)C)nn1CCN(C)C [(bg), 1-(3-(tert-butyl)-1-(2-(dimethylamino)ethyl)-1H-pyrazol-5-yl)-3-(2-(methylthio)-4-((3-oxo-3,4-dihydropyrido[2,3-b]pyrazin-8-yl)oxy)phenyl)urea] | ≥ 75 | ++ |
|  | CSc1cc(Oc2ccnc3[nH]c(=O)cnc23)ccc1NC(=O)Nc1cc(C(C)(C)C)nn1CCCN1CCOCC1 [(bh), 1-(3-(tert-butyl)-1-(3-morpholinopropyl)-1H-pyrazol-5-yl)-3-(2-(methylthio)-4-((3-oxo-3,4-dihydropyrido[2,3-b]pyrazin-8-yl)oxy)phenyl)urea] | ≥ 75 | ++ |
|  | CSc1cc(Oc2ccnc(NC(=O)OC(C)(C)C)c2)ccc1NC(=O)Nc1cc(C(C)(C)C)nn1-c1ccccc1 [(bi), tert-butyl N-[4-{4-[(5-tert-butyl-2-phenyl-pyrazol-3-yl)carbamoylamino]-3-methylsulfanyl-phenoxy}-2-pyridyl]carbamate] | ≥ 75 | ++ |
|  | CSc1cc(Oc2ccnc(N)c2)ccc1NC(=O)Nc1cc(C(C)(C)C)nn1-c1ccccc1.Cl [(bj), 1-(4-((2-aminopyridin-4-yl)oxy)-2-(methylthio)phenyl)-3-(3-(tert-butyl)-1-phenyl-1H-pyrazol-5-yl)urea hydrochloride] | ≥ 75 | ++ |
